# Data from US8227245B2, “Multipotent stem cells from peripheral tissues and uses thereof” (McGill University, priority 2000, dated 2012).
# B1: BMP-7: therapeutic protein (growth factor) added to 5% serum to induce differentiation (protein, UniProt P18075 293-431, looked up)
# Bone morphogenetic protein 7: STGSKQRSQNRSKTPKNQEALRMANVAENSSSDQRQACKKHELYVSFRDLGWQDWIIAPEGYAAYYCEGECAFPLNSYMNATNHAIVQTLVHFINPETVPKPCCAPTQLNAISVLYFDDSSNVILKKYRNMVVRACGCH
# Columns and labels:
# skin-derived MSCs [1] = assay: Pharmacological agents added to proliferating skin-derived MSCs (morphology, survival); format: cell-based, mouse; conditions: plated three days in proliferation medium containing FGF, medium supplemented with agent
# Text: FIG. 10 is a series of photographs showing the effect of various pharmacological agents on mouse skin-derived MSCs.
# We tested the ability of pharmacological agents to alter this phenotype.
# skin-derived MSCs [2] = assay: Endodermal marker expression of skin-derived MSCs by RT-PCR after plating with nicotinamide; format: cell-based; conditions: cells dissociated and plated in media supplemented with nicotinamide
# Experimental: Skin-derived MSCs were cultured under standard proliferation conditions in the presence or absence of B-27 supplement. Differentiation was induced by plating cells in the presence of nicotinamide, and the resulting differentiated cells were analyzed by quantitative RT-PCR. […] Although cells proliferated in either the presence or the absence of B27 supplement can be induced to express endodermal markers, cells proliferated in B27 appear to express such markers to a higher degree.
# Our recent discovery that MSCs maintain the potential to produce both neural and non-neural cell types has been accompanied by the discovery that non-neural stem cells such as bone marrow-derived stem cells (i.e., stromal cells or mesenchymal stem cells) also have the potential to produce a wide variety of neural and non-neural stem cells (Ferrari et al., Science 279:1528-1530, 1998; Gussoni et al., Nature 401:390-394, 1999; Peterson et al., Science 284:1168-1170, 1999; Pereira et al., Proc. Natl. Acad. Sci. USA 92:4857-4861, 1995; Prockop, Science 276:71-74, 1997; Kessler and Byrne, Annu. Rev. Physiol. 61:219-242, 1999; Pittenger et al., Science 284:143-147). […] After several days of co-culture the skin-derived stem cells were analyzed based on both morphology and on protein expression. […]
# [3] = tested on: skin-derived stem cells harvested from human foreskin; assay: Culture of human foreskin skin-derived stem cells in presence and absence of LIF; format: cell-based; conditions: proliferating non-adherent cultures with EGF and FGF2
# Text: In contrast to human central nervous system derived stem cells, the survival and proliferation of human skin-derived stem cells is not dependent on LIF.
# We cultured the cell suspension, as previously described, in non-adherent vessels in the presence of EGF and FGF2. […] The clusters are morphologically indistinguishable from skin-derived stem cells derived from rodent tissue. Skin-derived clusters are loosely compacted, and the cells can be readily dissociated manually without the use of proteases. Such characteristics appear to distinguish skin-derived clusters from CNS-derived neurospheres. […] Furthermore, we have currently passaged and maintained foreskin derived stem cells as proliferating cultures for greater than three months.
# skin derived MSCs = assay: Neuronal differentiation of skin-derived MSCs plated in 5% serum with added agent, anti-neurofilament immunocytochemistry; format: cell-based; conditions: 5% serum plus agent, compared with serum alone
# Experimental: Cells were dissociated and plated in the presence of either 5% FBS, 5% FBS+retinoic acid (RA), or 5% FBS+BMP7. Cells were analyzed immunocytochemically for expression of neurofilament M (NFM).
# Skin derived MSCs were obtained and cultured as described in detail above. To induce differentiation, cells were plated in the presence of 5% serum supplemented with either retinoic acid or BMP-7. Neuronal differentiation was analyzed using a polyclonal anti-neurofilament antibody.
molecule,measurement,setting,value
COc1cccc(-c2cc(=O)c3ccccc3o2)c1N [PD098059],effect on phenotype of proliferating skin-derived MSCs,skin-derived MSCs [1],caused proliferating cells to flatten and differentiate
C[S+]([O-])c1ccc(-c2nc(-c3ccncc3)c(-c3ccc(F)cc3)[nH]2)cc1 (centres unmarked) [SB203580],effect on phenotype of proliferating skin-derived MSCs,skin-derived MSCs [1],no observed effect
NC(=O)c1cccnc1 [nicotinamide],"expression of endodermal markers (GATA-4, HNF3α, Isl1, AFP, HNF3β, Ngn3, Pdx-1, Insulin)",skin-derived MSCs [2],express markers of endodermal differentiation
LIF: cytokine added to culture medium (R&D Systems),"proliferation, differentiation or survival characteristics in presence and absence of LIF",[3],no significant differences
B1,number and complexity of neurofilament positive cells,skin derived MSCs,enhances the number and complexity of neurofilament positive cells
